Test system: 282377-053-R-J1-PDC complex spheroid viability
Experiment: Anticancer human tumor 282377-053-R-J1-PDC patient-derived colon adenocarcinoma cell line growth inhibition [POLQ]
Settings: for IC50: curve of first compound; for viability, T/C: stronger effect = lower value
Outline: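 Three-cell-type spheroids modelling solid tumor plus stroma served as the readout system; POL inhibitors were tested individually and in combination, concentration ranges set by clinical Cmax where known.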

[1] = second compound 0.0316 µM, first compound 0.0316 µM
[2] = second compound 0.0316 µM, first compound 0.1 µM
[3] = second compound 0.0316 µM, first compound 0.316 µM
[4] = second compound 0.0316 µM, first compound 1 µM
[5] = second compound 0.0316 µM, first compound 3.16 µM
[6] = second compound 0.0316 µM, first compound 10 µM
[7] = second compound 0.1 µM, first compound 0.0316 µM
[8] = second compound 0.1 µM, first compound 0.1 µM
[9] = second compound 0.1 µM, first compound 0.316 µM
[10] = second compound 0.1 µM, first compound 1 µM
[11] = second compound 0.1 µM, first compound 3.16 µM
[12] = second compound 0.1 µM, first compound 10 µM
[13] = second compound 0.316 µM, first compound 0.0316 µM
[14] = second compound 0.316 µM, first compound 0.1 µM
[15] = second compound 0.316 µM, first compound 0.316 µM
[16] = second compound 0.316 µM, first compound 1 µM
[17] = second compound 0.316 µM, first compound 3.16 µM
[18] = second compound 0.316 µM, first compound 10 µM
[19] = second compound 1 µM, first compound 0.0316 µM
[20] = second compound 1 µM, first compound 0.1 µM
[21] = second compound 1 µM, first compound 0.316 µM
[22] = second compound 1 µM, first compound 1 µM
[23] = second compound 1 µM, first compound 3.16 µM
[24] = second compound 1 µM, first compound 10 µM
[25] = second compound 3.16 µM, first compound 0.0316 µM
[26] = second compound 3.16 µM, first compound 0.1 µM
[27] = second compound 3.16 µM, first compound 0.316 µM
[28] = second compound 3.16 µM, first compound 1 µM
[29] = second compound 3.16 µM, first compound 3.16 µM
[30] = second compound 3.16 µM, first compound 10 µM
[31] = second compound 10 µM, first compound 0.0316 µM
[32] = second compound 10 µM, first compound 0.1 µM
[33] = second compound 10 µM, first compound 0.316 µM
[34] = second compound 10 µM, first compound 1 µM
[35] = second compound 10 µM, first compound 3.16 µM
[36] = second compound 10 µM, first compound 10 µM
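Also: spheroids exposed to compounds for seven days.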
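For viability, T/C in this document: 100% = DMSO vehicle control viability.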

Q: What does the source list for `CC1COCCN1c1cc(C2(O)CC3CCC(C2)O3)c2cnn(-c3ccn[nH]3)c2n1` (centres undefined) + Nc1ccc(C#CCN(C(=O)Cc2ncc(C(F)(F)F)cc2C(F)(F)F)c2ccc(F)cc2)nn1?
A: IC50 (second compound 0.0316 µM): 1980 nM; IC50 (second compound 0.1 µM): 588 nM; IC50 (second compound 0.316 µM): 1290 nM; IC50 (second compound 1 µM): 730 nM; IC50 (second compound 3.16 µM): 1180 nM; IC50 (second compound 10 µM): 1080 nM; viability, T/C [1]: 83.8%; viability, T/C [2]: 75.4%; viability, T/C [3]: 67.5%; viability, T/C [4]: 53.3%; viability, T/C [5]: 47.8%; viability, T/C [6]: 40.5%; viability, T/C [7]: 89.3%; viability, T/C [8]: 89.3%; viability, T/C [9]: 57.3%; viability, T/C [10]: 48.7%; viability, T/C [11]: 43.3%; viability, T/C [12]: 36.4%; viability, T/C [13]: 107%; viability, T/C [14]: 84.6%; viability, T/C [15]: 63.9%; viability, T/C [16]: 50.6%; viability, T/C [17]: 46.5%; viability, T/C [18]: 36.3%; viability, T/C [19]: 97.6%; viability, T/C [20]: 83.9%; viability, T/C [21]: 71%; viability, T/C [22]: 38.3%; viability, T/C [23]: 44.4%; viability, T/C [24]: 43.6%; viability, T/C [25]: 92.3%; viability, T/C [26]: 75.7%; viability, T/C [27]: 65.6%; viability, T/C [28]: 47.6%; viability, T/C [29]: 45.9%; viability, T/C [30]: 40.8%; viability, T/C [31]: 97.3%; viability, T/C [32]: 77.2%; viability, T/C [33]: 62.8%; viability, T/C [34]: 49.3%; viability, T/C [35]: 44%; viability, T/C [36]: 40.1%

Q: Which IC50 (second compound 0.0316 µM) does the source give for `O=C(Nc1ccc(O)c(NS(=O)(=O)c2ccc(F)cc2)c1)c1ccc(-c2ccccc2)cc1` + Nc1ccc(C#CCN(C(=O)Cc2ncc(C(F)(F)F)cc2C(F)(F)F)c2ccc(F)cc2)nn1 here?
A: > 10000 nM

Q: What about the IC50 (second compound 0.1 µM) of the same molecule?
A: > 10000 nM

Q: And the IC50 (second compound 0.316 µM)?
A: > 10000 nM

Q: What about the IC50 (second compound 1 µM) of the same molecule?
A: > 10000 nM

Q: And the IC50 (second compound 3.16 µM)?
A: > 10000 nM

Q: What about the IC50 (second compound 10 µM) of the same molecule?
A: > 10000 nM

Q: And the viability, T/C [1]?
A: 92.8%

Q: What about the viability, T/C [2] of the same molecule?
A: 115%

Q: What about the viability, T/C [3] of the same molecule?
A: 98.1%

Q: And the viability, T/C [4]?
A: 102%

Q: What about the viability, T/C [5] of the same molecule?
A: 97.9%

Q: What about the viability, T/C [6] of the same molecule?
A: 107%

Q: What about the viability, T/C [7] of the same molecule?
A: 93.1%

Q: And the viability, T/C [8]?
A: 107%

Q: What about the viability, T/C [9] of the same molecule?
A: 100%

Q: And the viability, T/C [10]?
A: 97.2%

Q: What about the viability, T/C [11] of the same molecule?
A: 104%

Q: And the viability, T/C [12]?
A: 103%

Q: What about the viability, T/C [13] of the same molecule?
A: 96.9%

Q: And the viability, T/C [14]?
A: 101%

Q: And the viability, T/C [15]?
A: 112%

Q: What about the viability, T/C [16] of the same molecule?
A: 95.4%

Q: And the viability, T/C [17]?
A: 100%

Q: What about the viability, T/C [18] of the same molecule?
A: 99.8%

Q: And the viability, T/C [19]?
A: 96.5%

Q: And the viability, T/C [20]?
A: 95.5%

Q: And the viability, T/C [21]?
A: 98.7%

Q: And the viability, T/C [22]?
A: 109%

Q: And the viability, T/C [23]?
A: 87.1%

Q: And the viability, T/C [24]?
A: 100%

Q: And the viability, T/C [25]?
A: 113%

Q: What about the viability, T/C [26] of the same molecule?
A: 113%

Q: What about the viability, T/C [27] of the same molecule?
A: 103%

Q: What about the viability, T/C [28] of the same molecule?
A: 100%

Q: What about the viability, T/C [29] of the same molecule?
A: 109%

Q: What about the viability, T/C [30] of the same molecule?
A: 117%

Q: What about the viability, T/C [31] of the same molecule?
A: 124%

Q: What about the viability, T/C [32] of the same molecule?
A: 108%

Q: And the viability, T/C [33]?
A: 109%

Q: And the viability, T/C [34]?
A: 133%

Q: And the viability, T/C [35]?
A: 110%

Q: And the viability, T/C [36]?
A: 139%
